Assay results published in patent US4487965A, “Trans-3-(4'-tert.-Butylcyclohex-1'yl)-2-methyl-1-dialkylaminopropanes, their preparation and their use as drugs” (BASF Aktiengesellschaft, priority 1982, dated 1984).

Assays:
[1] = system: Trichophyton mentagroph. ATCC 4807; assay: in vitro antimicrobial activity, agar dilution test (minimum inhibitory concentrations); format: cell-based, Trichophyton mentagrophytes
Description: (§1) The in vitro antimicrobial activity against microorganisms was determined in the agar dilution test (P. Klein, loc. cit.).

[2] = system: Candida albicans ATCC 14052; assay: as above; format: cell-based
Description: as §1

[3] = system: Epidermophyton floccosum ATCC 10227; assay: as above; format: cell-based
Description: as §1

[4] = system: Mikrosporon ferrugineum CBS 317.31; assay: as above; format: cell-based
Description: as §1

[5] = system: Trichophyton mentagrophytes; assay: guinea pig trichophytosis model, external application; format: in vivo; details: externally once daily
Description: Furthermore, the novel compounds were tested in the guinea pig trichophyt is model (Trichophyton mentagrophytes; cf. Heffter-Heubner: Handbuch der experimentellen Pharmakologie, Volume XVI/11A, Springer Verlag, Berlin, Heidelberg, New York, 1967), in which the compounds were applied externally in the form of 0.2, 0.5 and 1% strength suspensions. Application was effected once daily for 4 and 7 days respectively. After the 4th and 7th day of treatment, and 7 days after the last treatment, hairs or scales were pulled off at from 3 to 5 points in the infected area in each animal, and were incubated in Sabourand dextrose bouillon.
Evaluation was carried out by monitoring fungal growth after incubation for 8 days.

[6] = 0.2% suspension, 7 days after treatment
[7] = 1.0% suspension, 7 days after treatment

Structure (SMILES) | Minimum inhibitory concentrations [1] | Minimum inhibitory concentrations [2] | Minimum inhibitory concentrations [3] | Minimum inhibitory concentrations [4] | fraction of animals in which infection was observed ([5]; 0.2% suspension, 4 days) | fraction of animals in which infection was observed ([5]; 0.2% suspension, 7 days) | fraction of animals in which infection was observed [5, 6] | fraction of animals in which infection was observed ([5]; 0.5% suspension, 4 days) | fraction of animals in which infection was observed ([5]; 0.5% suspension, 7 days) | fraction of animals in which infection was observed ([5]; 0.5% suspension, 7 days after treatment) | fraction of animals in which infection was observed ([5]; 1.0% suspension, 4 days) | fraction of animals in which infection was observed ([5]; 1.0% suspension, 7 days) | fraction of animals in which infection was observed [5, 7]
CCCN(CCC)CC(C)C[C@H]1CC[C@H](C(C)(C)C)CC1 (stereo partly drawn) [Example 1, trans-3-(4'-tert.-Butylcyclohex-1'-yl)-2-methyl-1-(N-di-n-propylamino)-propane] | < 0.125 | < 0.125 | < 0.125 | < 0.125 | 3/5 | 2/5 | 1/5 | 0/5 | 0/5 | 0/5 | 1/5 | 0/5 | 0/5
Clc1ccccc1C(c1ccccc1)(c1ccccc1)n1ccnc1 [Clotrimazole, reference compound] |  |  |  |  | 3/5 | 3/5 | 3/5 |  |  |  | 2/5 | 0/5 | 3/5
Cc1cccc(N(C)C(=S)Oc2ccc3ccccc3c2)c1 [Tolnaftate, reference compound] |  |  |  |  |  |  |  |  |  |  | 0/9 | 0/9 | 2/9
CCCN(CC)CC(C)C[C@H]1CC[C@H](C(C)(C)C)CC1 (stereo partly drawn) [Example 2, trans-3-(4'-tert.-Butylcyclohex-1'-yl)-2-methyl-1-(N-ethyl-N-n-propylamino)-propane] | 0.25 | 1 | 0.25 | < 0.125 |  |  |  |  |  |  |  |  | 
